The target in one experiment is nSMase2 (Homo sapiens (Human), UniProt Q9NY59). In words: nSMase2 inhibition (Tables 1A, 1B). In kind it is biochemical.
The test system of another experiment is HIV1-Ada. In words: HIV-infected humanized mice (hu-NSG), viral load and cell populations. In kind it is in vivo. As to the method: Humanization of NSG mice was determined 20 weeks following transplantation by flow cytometry (Miltenyl Biotec) using human specific antibodies directed against hCD45-APC (Leukocytes; Thermo Fisher), hCD3-PE (T cells; Biolegend), hCD14-PE/Cy7 (Macrophage; Biolegend), hCD19-BV421 (B cells; Biolegend). Percent humanization was calculated as a ratio for each of the human antibodies to a mouse specific antibody directed against mCD45-FITC (eBioscience). Mice>5% humanization (in each cell category) were included for experiments.
Reaction included a non-template control, non-enzyme control and sample was analyzed on an Applied Biosystem 7300 Real-Time PCR system (Life Technology). […] The dissociation stage was 95° C. for 15 sec, 60° C. for 1 min and 95° C. for 15 sec.
Drugs were reconstituted in 5% DMSO, 5% Tween-80 and 90% saline. Control mice injected with vehicle consisting of 5% DMSO, 5% Tween-80 in saline.

Experiment [1] deals with HIV-1 Tat-regulated firefly luciferase reporter in TZM/Bl cells. To be noted: dose response.
The test system of the next experiment is HIV in U1 cells. The experiment is described as follows: HIV replication (p24) in TNF-α-stimulated U1 cells. In kind it is cell-based. To be noted: TNF-α 500 ng/mL, 0.1 μM-10 μM, 12 h, 24 h, 48 h. As to the method: (§1) Quantification of HIV replication (p24 levels) in medium (top) and cell viability (bottom) of H9 cells (FIG. 4A), U1 cells (FIG. 4B), and human primary CD4+ cells (FIG. 4C) treated with nSMase2 inhibitor, MS882 (31). […] HIV replication and cell viability were measured at 12 h, 24 h, and 48 h after treatment of MS882 (31). Data are mean±S.D of n=3 per independent experiments/condition. *=p<0.05; **=p<0.01; ***=p<0.001 compared to uninfected control (H9 cells, primary human CD4+ cells), or non-TNFα-induced control (U1 cells). #=p<0.05; ##=p<0.01; ###=p<0.001 compared to HIV-infected or TNF-α-induced cells. One-Way ANOVA with Tukey post-hoc comparisons;

For another experiment, the system named is HIV Rf in H9 cells. The experiment is described as follows: HIV replication in HIV-infected H9 cells, P24 ELISA of culture supernatants. In kind it is cell-based. The conditions noted are these: H9 cells infected with HIV, dose response. The method, then:
Controls included no-treatment and vehicle. Cell viability and P24 were measured every 24 h for 4 days.
A general note: In an ELISA, binding on a coated surface is turned into a signal by an enzyme label.

Another experiment deals with ceramides. The experiment is described as follows: Plasma ceramides in HIV-infected humanized mice. The conditions noted are these: 10 mg/Kg for 6 weeks. In kind it is in vivo. As to the method:
Quantifications of multiple ceramides in plasma from uninfected humanized mice, HIV-infected humanized mice administered MS882 (31) (10 mg/Kg) or vehicle for 6 weeks. Data are mean±S.D of n=4-6 per group. *=p<0.05; **=p<0.01; ***=p<0.001 compared to uninfected humanized mice #=p<0.05; ##=p<0.01 compared to HIV-infected mice administered vehicle. One-Way ANOVA with Tukey post-hoc comparisons; Experimental drugs were delivered intraperitoneally at a dose of 10 mg/kg once daily beginning 5 weeks after HIV infection for a duration of 6 weeks. Drugs were reconstituted in 5% DMSO, 5% Tween-80 and 90% saline. Control mice injected with vehicle consisting of 5% DMSO, 5% Tween-80 in saline.

The next experiment deals with H9 cells and U1 cells. In words: Electron microscopy of HIV-infected H9 cells and TNF-α-stimulated U1 cells. The conditions noted are these: 10 μM for 6 h. The class given is cell-based. As to the method: Representative electron microscope images of H9 cells (FIG. 6A) and U1 cells (FIG. 6B) treated with MS882 (31) (10 μM) for 6 h following HIV infection (H9 cells) or TNF-α stimulation (U1 cells). […] Scale bar, 1 μm;

Experiment [2] deals with HIV-MN in primary human CD4+ cells. In words: HIV replication (p24) in human primary CD4+ cells. The conditions noted are these: HIV-MN 200 ng/mL, 0.1 μM-10 μM, 12 h, 24 h, 48 h. In kind it is cell-based. As to the method: as §1
Setting [3] is: nSMase2, compounds of formula (II), Table 1B, read-out: Activity* (IC50 category).
Where [4] appears, read: nSMase2 inhibitors of formula (I), Table 1A, read-out: IC50.
[5] abbreviates: daily administration for 6 weeks.

Read-outs that look alike come from different tables or passages of the source. A value given as a limit tells only on which side of the number the result lay.

nSMase2, sequence (Q9NY59 whole entry, species assumed): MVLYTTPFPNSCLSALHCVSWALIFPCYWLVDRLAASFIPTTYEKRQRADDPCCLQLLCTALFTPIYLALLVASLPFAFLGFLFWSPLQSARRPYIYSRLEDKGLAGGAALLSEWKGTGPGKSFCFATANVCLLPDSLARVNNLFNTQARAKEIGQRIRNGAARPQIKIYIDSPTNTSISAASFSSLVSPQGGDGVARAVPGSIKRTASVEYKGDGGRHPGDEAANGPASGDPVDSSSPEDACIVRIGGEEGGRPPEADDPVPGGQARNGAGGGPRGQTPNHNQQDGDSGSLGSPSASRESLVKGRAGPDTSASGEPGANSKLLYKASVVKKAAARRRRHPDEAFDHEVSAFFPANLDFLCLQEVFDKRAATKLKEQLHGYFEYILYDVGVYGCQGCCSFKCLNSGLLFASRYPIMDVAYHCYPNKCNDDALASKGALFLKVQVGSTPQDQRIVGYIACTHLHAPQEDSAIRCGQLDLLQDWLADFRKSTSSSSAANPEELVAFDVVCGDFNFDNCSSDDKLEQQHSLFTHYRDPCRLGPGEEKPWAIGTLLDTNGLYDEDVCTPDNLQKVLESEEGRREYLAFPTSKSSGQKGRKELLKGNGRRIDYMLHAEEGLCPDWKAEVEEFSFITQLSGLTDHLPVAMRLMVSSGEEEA

Consider `COc1ccc(-c2csc3c(N4CC[C@@H](NC(C)=O)C4)nc(Cl)nc23)cc1OC` [24-PROV], for which, on nSMase2 (setting [3]), the IC50 is over 100 µM. As to `COc1ccc(-c2c(C)sc3c(N4CC[C@@H](NC(C)=O)C4)nc(C)nc23)cc1OC` [29a-PROV], the IC50 on nSMase2 (setting [3]) was over 100 µM. For the compound `COc1cccc(-c2c(C)nc3c(N4CC[C@@H](NC(C)=O)C4)cc(C)nn23)c1` [20-PROV], the IC50 on nSMase2 (setting [4]) was over 1 µM. Regarding `COc1ccc(-c2c(C)sc3c(N4CC[C@@H](NC(C)=O)C4)ncnc23)cc1OC` [28-PROV], at nSMase2 (setting [3]), the IC50 was over 100 µM. `CC(=O)N[C@@H]1CCN(c2cc(C)nn3c(-c4cccc(S(C)(=O)=O)c4)c(C)nc23)C1` [42-PROV]: the IC50 at nSMase2 (setting [4]) was over 1 µM.

Take `CC(=O)N[C@@H]1CCN(c2cc(C)nn3c(I)c(C)nc23)C1` [23-PROV]: the IC50 on nSMase2 (setting [4]) was over 10 µM. On to `COc1ccc(-c2scc3c(N4CC[C@@H](NC(C)=O)C4)nc(C)nc23)cc1OC` [29b-PROV], for which, on nSMase2 (setting [3]), the IC50 is over 100 µM. Consider `COc1ccc(-c2c(C)nc3c(N4CC[C@@H](NC(C)=O)C4)cc(Cl)nn23)cc1` [11-PROV], for which the IC50 at nSMase2 (setting [4]) was over 100 µM. `COc1ccc(-c2c(C)sc3c(N4CC[C@@H](NC(C)=O)C4)nc(Cl)nc23)cc1OC` [25-PROV]: on nSMase2 (setting [3]), the IC50 is over 100 µM. For the compound `COc1ccc(-c2csc3c(N4CC[C@@H](NC(C)=O)C4)ncnc23)cc1OC` [27-PROV], at nSMase2 (setting [3]), the IC50 was over 100 µM. As for `COc1ccc(-c2c(C)nc3c(N4CC[C@@H](NC(=O)C5CCCCC5)C4)cc(C)nn23)cc1` [Entry 31], the “populations of human CD14+ macrophages” value in the experiment on HIV1-Ada (10 mg/kg daily I.P. for 6 weeks) is on record as “selectively decreased populations of CD14+ macrophages”. Moreover, in the experiment on HIV1-Ada (setting [5]), the “HIV RNAs in tissues (spleen, lung, liver, brain), qRT-PCR for HIV1-p24” value was “decreased”. Further, the “HIV+ (p24+) macrophages (hCD14+) in spleen, lung, liver, brain” value with HIV1-Ada (setting [5]) is “decreased”. Further, the “plasma HIV viral load” value with HIV1-Ada (daily intraperitoneal administration, HIV-infected humanized mice) is “reduced plasma HIV viral load”. Also, the “mice with plasma HIV viral load reduced to below detectable levels” value in the experiment on HIV1-Ada (daily intraperitoneal administration, individual mice) is reported as 3 out of 5. In addition, in experiment [1], the “luciferase activity in TZM/B1 cells” value is listed as “reduced luciferase activity in TZM/B1 cells at the highest doses tested”. Also, the “HIV replication (p24 levels in medium)” value (in the experiment with HIV in U1 cells; in experiment [2]) was “suppressed HIV-replication” each time. For the same compound, the “HIV replication (P24 ELISA of culture supernatants)” value was “dose-dependently reduced HIV replication” in the experiment on HIV Rf in H9 cells (listed as MS822 (31)) and “suppressed HIV-replication” in the experiment on HIV Rf in H9 cells (listed as MS882 (31)). In addition, the “multiple ceramides in plasma” value with ceramides is “decreased elevations of multiple ceramides”. Moreover, the “endolysosomal morphology (electron microscopy)” value in the experiment on H9 cells and U1 cells is on record as “induced enlarged endolysosomal compartments engorged with EM-dense debris”. As to `COc1ccc(-c2scc3c(N4CC[C@@H](NC(C)=O)C4)nc(Cl)nc23)cc1OC` [26-PROV], the IC50 at nSMase2 (setting [3]) is over 100 µM. On to `CC(=O)N[C@@H]1CCN(c2cc(C)nn3c(-c4ccc(O)cc4)c(C)nc23)C1` [47-PROV], for which the IC50 at nSMase2 (setting [4]) is at most 1 µM. For `CC(=O)N[C@@H]1CCN(c2cc(Cl)nn3c(-c4ccc(F)cc4)c(C)nc23)C1` [18-PROV], the IC50 at nSMase2 (setting [4]) is over 100 µM.

In the case of `CC(=O)N[C@@H]1CCN(c2cc(C)nn3c(-c4ccc5c(c4)OCO5)c(C)nc23)C1` [40-PROV], the IC50 at nSMase2 (setting [4]) is at most 1 µM. Still for that read-out and setting: under `CC(=O)Nc1cccc(-c2c(C)nc3c(N4CC[C@@H](NC(C)=O)C4)cc(C)nn23)c1` [22-PROV] stands over 1 µM; under `COc1cccc(-c2c(C)nc3c(N4CC[C@@H](NC(C)=O)C4)cc(Cl)nn23)c1` [14-PROV], over 100 µM.

With `COc1cc(N2CC[C@@H](NC(C)=O)C2)c2nc(C)c(-c3ccc(OC)c(OC)c3)n2n1` [38-PROV], on nSMase2 (setting [4]), the IC50 was over 1 µM. For the compound `CC(=O)N[C@@H]1CCN(c2ccnn3cc(C)nc23)C1` [15-PROV], the IC50 on nSMase2 (setting [4]) was over 10 µM. On to `CC(=O)N[C@@H]1CCN(c2cc(Cl)nn3cc(C)nc23)C1` [9-PROV], for which, on nSMase2 (setting [4]), the IC50 was over 100 µM.

With `CC(=O)Nc1cccc(-c2c(C)nc3c(N4CC[C@@H](NC(C)=O)C4)cc(Cl)nn23)c1` [19-PROV], the IC50 at nSMase2 (setting [4]) was over 100 µM. As to `COc1ccc(-c2csc3c(N4CC[C@@H](NC(C)=O)C4)nc(C)nc23)cc1OC` [30-PROV], on nSMase2 (setting [3]), the IC50 was over 100 µM. For the compound `CC(=O)N[C@@H]1CCN(c2cc(C)nn3c(C)c(C)nc23)C1` [48-PROV], on nSMase2 (setting [4]), the IC50 is over 1 µM.

The IC50 is the midpoint of a concentration-inhibition curve.

The values are drawn from US20240115574A1, “INHIBITION OF nSMase FOR THE TREATMENT OF HUMAN IMMUNODEFICIENCY VIRUS INFECTION” (The Johns Hopkins University, priority 2018, published 2024).
